Source: patent publication US9480729B2, “Enzymes for inhibiting growth of biofilms and degrading same” (C5-6 Technologies, Inc., priority 2012, dated 2016)

How the values were obtained:
[1] = cited from earlier work
[2] = system: Pseudomonas aeruginosa biofilm; assay: Sugar release / solubilization of dehydrated P. aeruginosa biofilm by carbohydrate-active enzymes; details: individual enzymes, dehydrated biofilm in PBS, 37° C., 19 hr / overnight

Molecule	maximal attainable concentration in the CF lung [1] [µg/mL]	digestion (solubilization, hydrolysis) of the Pseudomonas aeruginosa biofilm, sugar release [2]
NC[C@H]1O[C@H](O[C@H]2[C@H](O)[C@@H](O[C@H]3O[C@H](CO)[C@@H](O)[C@H](N)[C@H]3O)[C@H](N)C[C@@H]2N)[C@H](N)C[C@@H]1O [tobramycin]	~1000	
egg yolk lysozyme: egg yolk lysozyme (Sigma L4919)		None of these three enzymes showed significant hydrolysis
P043 CelH: Clostridium thermocellum CelH enzyme (gene Cthe_1472) represented by SEQ ID NO:12 (protein, listed as Clostridium thermocellum) IKSFQELQGRKLDIVHQFINWSTDFSWVRPYADAVYNNGSILMITWEPWEYNTVDIKNGKADAYITRMAQDMKAYGKEIWLRPLHEANGDWYPWAIGYSSRVNTNETYIAAFRHIVDIFRANGATNVKWVFNVNCDNVGNGTSYLGHYPGDNYVDYTSIDGYNWGTTQSWGSQWQSFDQVFSRAYQALASINKPIIIAEFASAEIGGNKARWITEAYNSIRTSYNKVIAAVWFHENKETDWRINSSPEALAAYREAIGAGSSNPTPTPTWTSTPPSSSPKAVDPFEMVRKMGMGTNLGNTLEAPYEGSWSKSAMEYYFDDFKAAGYKNVRIPVRWDNHTMRTYPYTIDKAFLDRVEQVVDWSLSRGFVTIINSHHDDWIKEDYNGNIERFEKIWEQIAERFKNKSENLLFEIMNEPFGNITDEQIDDMNSRILKIIRKTNPTRIVIIGGGYWNSYNTLVNIKIPDDPYLIGTFHYYDPYEFTHKWRGTWGTQEDMDTVVRVFDFVKSWSDRNNIPVYFGEFAVMAYADRTSRVKWYDFISDAALERGFACSVWDNGVFGSLDNDMAIYNRDTRTFDTEILNALFNPGTYPSYSPKPSPTPRPTKPPVTPAVGEKMLDDFEGVLNWGSYSGEGAKVSTKIVSGKTGNGMEVSYTGTTDGYWGTVYSLPDGDWSKWLKISFDIKSVDGSANEIRFMIAEKSINGVGDGEHWVYSITPDSSWKTIEIPFSSFRRRLDYQPPGQDMSGTLDLDNIDSIHFMYANNKSGKFVVDNIKLIGATSDPTPSIKHGDLNFDNAVNSTDLLMLKRYILKSLELGTSEQEEKFKKAADLNRDNKVDSTDLTILKRYLLKAISEIPI		positive results
